Assay results reported in article PMC4311625, “Structural determinants for binding to angiotensin converting enzyme 2 (ACE2) and angiotensin receptors 1 and 2” (Frontiers in Pharmacology, 2015).
Read-outs that look alike come from different tables or passages of the source. Peptide text beside a SMILES is read from it.

Target: ACE2 (Homo sapiens, UniProt Q9BYF1)
Experiment: ACE2 quenched fluorescence substrate (QFS) inhibition assay
Assay type: biochemical
Conditions: for inhibition at 10 µM: read-out: ACE2 inhibition of terminally modified IHPF analogs, 10 μM (Table 3, in brackets), peptide 10 μM
Procedure: Angiotensin converting enzyme 2 QFS assays were performed for 1 h in 50 uM QFS, 1 M NaCl, 100 mM Tris-Cl, pH 6.5 at 37∘C on a BMG LabTechnologies (Offenburg, Germany), FLUOStar Optima in a 96 well-plate. Subsequent data analysis determined the inhibition of native AngII, its analogs and C-terminal peptides compared to the ACE2 QFS substrate [MCA-APK(DNP)-OH, [Vickers et al., 2002]]. […] Three controls were included in each ACE2 QFS assay; AngII (100 and 10 μM), IHPF (100 μM) and a known ACE2 inhibitor (1 nM; Millennium Pharmaceuticals, Cambridge, MA, USA). QFS assay results were accepted when ACE2 inhibition by AngII (10 μM) was 80 ± 5%, IHPF was 65 ± –5% and the ([Qian et al., 1999]) ‘Millennium Inhibitor’ was 70 ± –5%. Acceptable coefficients of variation (CV; standard deviation/mean × 100) for sample triplicates were <7%.
A library of 40 tetrapeptides based on the four C-terminal residues of Ang II (Ile-His-Pro-Phe/IHPF) was generated and screened for ACE2 binding at 100 μM in order to identify key residues of the C-terminus of Ang II involved in binding to the ACE2 active site. […] Several substitutions (Val, Tyr, Ala, Gly, Phe, Trp, Pro, His, Ile, and Leu) were made in order to further probe the highly hydrophobic and cyclic specificity of the C-terminus of Ang II. A β-napthalene amino acid (Nth) derivative was used as a highly hydrophobic non-natural cyclic residue substitute, and Arg and Lys were substituted for histidine at the second position from the N-terminus of the tetrapeptide to determine if positive charge or other structural or positional requirements were important.

[1] = read-out: ACE2 inhibition of terminally modified IHPF analogs, 100 μM (Table 3), peptide 100 μM, 50 uM QFS, 1 M NaCl, 100 mM Tris-Cl pH 6.5, 37 °C, 1 h
[2] = peptide 100 μM, 50 uM QFS MCA-APK(DNP)-OH, 1 M NaCl, 100 mM Tris-Cl pH 6.5, 37 °C, 1 h, fluorescence, triplicate, read-out: ACE2 inhibition of single substitution analogs of the C-terminal of AngII (Table 1)
[3] = peptide 100 μM, 50 uM QFS, 1 M NaCl, 100 mM Tris-Cl pH 6.5, 37 °C, 1 h, triplicate, read-out: Inhibition (%) of ACE2, single and multiple residue substitution analogs (Table 2)
[4] = 50 uM QFS, 1 M NaCl, 100 mM Tris-Cl pH 6.5, 37 °C, 1 h
[5] = pH 6.5, read-out: ACE2 inhibition of terminally modified IHPF analogs, 100 μM (Table 3)

Sequence of ACE2 (Q9BYF1 18-805, species assumed): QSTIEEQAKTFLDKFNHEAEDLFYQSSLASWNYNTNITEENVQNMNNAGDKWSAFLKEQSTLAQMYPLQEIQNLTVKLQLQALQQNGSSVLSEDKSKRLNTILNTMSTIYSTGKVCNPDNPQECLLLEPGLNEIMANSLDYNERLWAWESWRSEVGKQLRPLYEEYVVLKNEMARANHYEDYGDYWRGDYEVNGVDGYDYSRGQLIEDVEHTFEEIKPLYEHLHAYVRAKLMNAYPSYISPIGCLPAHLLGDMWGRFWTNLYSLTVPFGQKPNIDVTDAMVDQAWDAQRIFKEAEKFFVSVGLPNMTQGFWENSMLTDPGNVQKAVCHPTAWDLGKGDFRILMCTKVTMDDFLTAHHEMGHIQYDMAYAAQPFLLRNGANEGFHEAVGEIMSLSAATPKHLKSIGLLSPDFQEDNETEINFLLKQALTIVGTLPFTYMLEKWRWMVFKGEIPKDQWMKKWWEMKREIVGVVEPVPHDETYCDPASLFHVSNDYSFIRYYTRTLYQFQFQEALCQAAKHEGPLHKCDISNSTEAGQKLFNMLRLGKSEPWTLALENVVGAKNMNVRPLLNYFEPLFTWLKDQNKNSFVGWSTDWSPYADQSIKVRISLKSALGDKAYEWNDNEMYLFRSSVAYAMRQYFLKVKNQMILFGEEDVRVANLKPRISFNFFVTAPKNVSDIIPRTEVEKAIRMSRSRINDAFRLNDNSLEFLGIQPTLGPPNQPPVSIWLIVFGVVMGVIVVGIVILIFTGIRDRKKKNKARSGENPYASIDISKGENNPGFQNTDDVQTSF

| SMILES | inhibition at 100 µM [1] | inhibition at 100 µM [2] | other results |
| --- | --- | --- | --- |
| CC(=O)N1CCC[C@H]1C(=O)N[C@@H](Cc1ccc(O)cc1)C(=O)N[C@H](C(=O)N[C@@H](Cc1ccccc1)C(N)=O)C(C)C [N-acetylated/C-amidated PYVF] (Ac-PYVF-NH2) | 25% |  |  |
| CC[C@H](C)[C@H](N)C(=O)N[C@@H](Cc1c[nH]cn1)C(=O)N1CCC[C@H]1C(=O)N[C@@H](C)C(=O)O [IHPA] (H-IHPA-OH) |  | 44% |  |
| CC(C)[C@H](N)C(=O)N[C@@H](Cc1ccc(O)cc1)C(=O)N[C@H](C(=O)N[C@@H](Cc1ccccc1)C(=O)O)C(C)C [VYVF] (H-VYVF-OH) |  |  | inhibition at 100 µM [3]: 78% |
| CC(C)[C@H](N)C(=O)N[C@@H](Cc1c[nH]cn1)C(=O)N1CCC[C@H]1C(=O)N[C@@H](Cc1ccccc1)C(=O)O [VHPF] (H-VHPF-OH) |  | 78% | inhibition at 100 µM [3]: 78% |
| CC[C@H](C)[C@H](N)C(=O)N[C@@H](Cc1ccc(O)cc1)C(=O)N1CCC[C@H]1C(=O)N[C@@H](Cc1ccccc1)C(=O)O [IYPF] (H-IYPF-OH) | 84% | 87% | inhibition at 10 µM [4]: 35% |
| CC(C)[C@H](N)C(=O)N[C@@H](Cc1c[nH]cn1)C(=O)N[C@H](C(=O)N[C@@H](Cc1ccccc1)C(N)=O)C(C)C [C-amidated VHVF] (H-VHVF-NH2) | 86% |  | inhibition at 10 µM [4]: 40% |
| CC[C@H](C)[C@H](N)C(=O)N[C@@H](Cc1c[nH]cn1)C(=O)N[C@H](C(=O)N[C@@H](Cc1ccccc1)C(=O)O)C(C)C [IHVF] (H-IHVF-OH) |  | 77% | inhibition at 100 µM [3]: 77% |
| CC[C@H](C)[C@H](N)C(=O)N[C@@H](CCCCN)C(=O)N1CCC[C@H]1C(=O)N[C@@H](Cc1ccccc1)C(=O)O [IKPF] (H-IKPF-OH) |  | 28% |  |
| CC(=O)N1CCC[C@H]1C(=O)N[C@@H](Cc1c[nH]cn1)C(=O)N1CCC[C@H]1C(=O)N[C@@H](Cc1ccccc1)C(N)=O [N-acetylated/C-amidated PHPF] (Ac-PHPF-NH2) | 8% |  |  |
| CC[C@H](C)[C@H](N)C(=O)N[C@@H](CCCNC(=N)N)C(=O)N1CCC[C@H]1C(=O)N[C@@H](Cc1ccccc1)C(=O)O [IRPF] (H-IRPF-OH) |  | 33% |  |
| CC[C@H](C)[C@H](N)C(=O)N1CCC[C@H]1C(=O)N1CCC[C@H]1C(=O)N[C@@H](Cc1ccccc1)C(=O)O [IPPF] (H-IPPF-OH) |  | 0% |  |
| CC(=O)N1CCC[C@H]1C(=O)N[C@@H](Cc1c[nH]cn1)C(=O)N[C@H](C(=O)N[C@@H](Cc1ccccc1)C(N)=O)C(C)C [N-acetylated/C-amidated PHVF] (Ac-PHVF-NH2) | 12% |  |  |
| CC[C@H](C)[C@H](N)C(=O)N[C@@H](C)C(=O)N1CCC[C@H]1C(=O)N[C@@H](Cc1ccccc1)C(=O)O [IAPF] (H-IAPF-OH) |  | 37% |  |
| CC(C)[C@H](NC(=O)[C@H](Cc1ccc(O)cc1)NC(=O)[C@@H]1CCCN1)C(=O)N[C@@H](Cc1ccccc1)C(=O)O [PYVF] (H-PYVF-OH) | 94% |  | inhibition at 100 µM [3]: 94%; inhibition at 10 µM [4]: 51% |
| NCC(=O)N[C@@H](Cc1c[nH]cn1)C(=O)N1CCC[C@H]1C(=O)N[C@@H](Cc1ccccc1)C(=O)O [GHPF] (H-GHPF-OH) |  | 0% |  |
| CC(C)[C@H](NC(=O)[C@H](Cc1ccc(O)cc1)NC(=O)[C@@H]1CCCN1)C(=O)N[C@@H](Cc1ccccc1)C(N)=O [C-amidated PYVF] (H-PYVF-NH2) | 26% |  |  |
| NC(=O)[C@H](Cc1ccccc1)NC(=O)[C@@H]1CCCN1C(=O)[C@H](Cc1ccc(O)cc1)NC(=O)[C@@H]1CCCN1 [C-amidated PYPF] (H-PYPF-NH2) |  |  | inhibition at 100 µM [5]: 33% |
| CC(C)[C@H](NC(=O)[C@H](Cc1c[nH]cn1)NC(=O)[C@@H]1CCCN1)C(=O)N[C@@H](Cc1ccccc1)C(N)=O [C-amidated PHVF] (H-PHVF-NH2) | 12% |  |  |

| SMILES | inhibition at 100 µM [1] | inhibition at 100 µM [2] | other results |
| --- | --- | --- | --- |
| CC[C@H](C)[C@H](N)C(=O)N[C@@H](Cc1c[nH]cn1)C(=O)N1CCC[C@H]1C(=O)N[C@@H](Cc1ccc(O)cc1)C(=O)O [IHPY] (H-IHPY-OH) |  | 50% |  |
| CC[C@H](C)[C@H](N)C(=O)NCC(=O)N1CCC[C@H]1C(=O)N[C@@H](Cc1ccccc1)C(=O)O [IGPF] (H-IGPF-OH) |  | 39% |  |
| O=C(O)[C@H](Cc1ccccc1)NC(=O)[C@@H]1CCCN1C(=O)[C@H](Cc1c[nH]cn1)NC(=O)[C@@H]1CCCN1 [PHPF] (H-PHPF-OH) | 81% | 78% | inhibition at 10 µM [4]: 20% |
| CC[C@H](C)[C@H](N)C(=O)N[C@@H](Cc1c[nH]cn1)C(=O)N1CCC[C@H]1C(=O)N[C@H](C(=O)O)[C@@H](C)CC [IHPI] (H-IHPI-OH) |  | 36% |  |
| CC(C)[C@H](NC(=O)[C@H](Cc1c[nH]cn1)NC(=O)[C@@H]1CCCN1)C(=O)N[C@@H](Cc1ccccc1)C(=O)O [PHVF] (H-PHVF-OH) | 93% |  | inhibition at 100 µM [3]: 93%; inhibition at 10 µM [4]: 49% |
| CC[C@H](C)[C@H](N)C(=O)N[C@@H](Cc1c[nH]cn1)C(=O)N[C@@H](Cc1ccc(O)cc1)C(=O)N[C@@H](Cc1ccccc1)C(=O)O [IHYF] (H-IHYF-OH) |  | 1% |  |
| N[C@@H](Cc1ccc(O)cc1)C(=O)N[C@@H](Cc1c[nH]cn1)C(=O)N1CCC[C@H]1C(=O)N[C@@H](Cc1ccccc1)C(=O)O [YHPF] (H-YHPF-OH) |  | 34% |  |
| CC(=O)N[C@H](C(=O)N[C@@H](Cc1ccc(O)cc1)C(=O)N1CCC[C@H]1C(=O)N[C@@H](Cc1ccccc1)C(=O)O)C(C)C [N-acetylated VYPF] (Ac-VYPF-OH) | 98% |  | inhibition at 10 µM [4]: 79% |
| CC(=O)N[C@H](C(=O)N[C@@H](Cc1c[nH]cn1)C(=O)N[C@H](C(=O)N[C@@H](Cc1ccccc1)C(N)=O)C(C)C)C(C)C [N-acetylated/C-amidated VHVF] (Ac-VHVF-NH2) | 21% |  | inhibition at 10 µM [4]: 4% |
| CC(=O)N1CCC[C@H]1C(=O)N[C@@H](Cc1ccc(O)cc1)C(=O)N[C@H](C(=O)N[C@@H](Cc1ccccc1)C(=O)O)C(C)C [N-acetylated PYVF] (Ac-PYVF-OH) | 78% |  | inhibition at 10 µM [4]: 18% |
| CC(=O)N1CCC[C@H]1C(=O)N[C@@H](Cc1ccc(O)cc1)C(=O)N1CCC[C@H]1C(=O)N[C@@H](Cc1ccccc1)C(=O)O [N-acetylated PYPF] (Ac-PYPF-OH) | 87% |  | inhibition at 10 µM [4]: 44% |
| N[C@@H](Cc1c[nH]cn1)C(=O)N[C@@H](Cc1c[nH]cn1)C(=O)N1CCC[C@H]1C(=O)N[C@@H](Cc1ccccc1)C(=O)O [HHPF] (H-HHPF-OH) |  | 12% |  |
| CC(=O)N1CCC[C@H]1C(=O)N[C@@H](Cc1c[nH]cn1)C(=O)N[C@H](C(=O)N[C@@H](Cc1ccccc1)C(=O)O)C(C)C [N-acetylated PHVF] (Ac-PHVF-OH) | 8% |  |  |
| CC[C@H](C)[C@H](N)C(=O)N[C@@H](Cc1c[nH]cn1)C(=O)N1CCC[C@H]1C(=O)N[C@H](C(=O)O)C(C)C [IHPV] (H-IHPV-OH) |  | 18% |  |
| CC(=O)N1CCC[C@H]1C(=O)N[C@@H](Cc1ccc(O)cc1)C(=O)N1CCC[C@H]1C(=O)N[C@@H](Cc1ccccc1)C(N)=O [N-acetylated/C-amidated PYPF] (Ac-PYPF-NH2) |  |  | inhibition at 100 µM [5]: 28% |
| CC[C@H](C)[C@H](N)C(=O)N[C@@H](Cc1c[nH]cn1)C(=O)N[C@@H](C)C(=O)N[C@@H](Cc1ccccc1)C(=O)O [IHAF] (H-IHAF-OH) |  | 19% |  |
| CC[C@H](C)[C@H](N)C(=O)N[C@@H](Cc1c[nH]cn1)C(=O)N1CCC[C@H]1C(=O)N[C@@H](Cc1c[nH]cn1)C(=O)O [IHPH] (H-IHPH-OH) |  | 54% |  |
